Source: PMC4618636 (Pharmacology Research & Perspectives, 2015)
Where “and” joins values, the source holds several entries; their conditions need not be identical. Equal values may be shown once. Read-outs that look alike come from different tables or passages of the source.

Tests used:
CYP2B6 = settings: for CYP2B6 Indmax: mean from two experiments; for CYP2B6 % PB: relative to positive control phenobarbital, equation 2
CYP3A4 [1] = settings: in vivo induction value used for the RIS calibration; cited from earlier work
CYP3A4 [2] = settings: for CYP3A4 RIS: mean of two experiments; for CYP3A4 % Rif: relative to positive control rifampicin, equation 2; for CYP3A4 Ind50: column headed Ind50 in Table 5
[3] = upcyte Donor 10-03, mean from two experiments
[4] = upcyte Donor 10-03, values of two experiments
[5] = upcyte Donor 151-03, mean from two experiments
[6] = upcyte Donor 151-03, values of two experiments
[7] = upcyte Donor 422A-03, mean from two experiments
[8] = upcyte Donor 422A-03, values of two experiments
[9] = upcyte Donor 653-03, mean from two experiments
[10] = upcyte Donor 653-03, values of two experiments
[11] = negative controls, any concentration tested (quinidine 0.1–250 μmol/L, flumazenil 0.05–50 μmol/L), data not shown

| SMILES | CYP2B6 Indmax (CYP2B6; upcyte Donor 10-03) | CYP2B6 % PB (CYP2B6; upcyte Donor 10-03) | CYP2B6 Indmax (CYP2B6; upcyte Donor 151-03) | CYP2B6 % PB (CYP2B6; upcyte Donor 151-03) | CYP2B6 Indmax (CYP2B6; upcyte Donor 422A-03) | CYP2B6 % PB (CYP2B6; upcyte Donor 422A-03) | CYP2B6 Indmax (CYP2B6; upcyte Donor 653-03) | CYP2B6 % PB (CYP2B6; upcyte Donor 653-03) | % Decrease in midazolam AUC (CYP3A4 [1]) | CYP3A4 Indmax (CYP3A4 [2]; [3]) | CYP3A4 RIS (CYP3A4 [2]; upcyte Donor 10-03) | CYP3A4 % Rif (CYP3A4 [2]; upcyte Donor 10-03) | CYP3A4 Indmax (CYP3A4 [2]; [4]) | CYP3A4 Indmax (CYP3A4 [2]; [5]) | CYP3A4 RIS (CYP3A4 [2]; upcyte Donor 151-03) | CYP3A4 % Rif (CYP3A4 [2]; upcyte Donor 151-03) | CYP3A4 Indmax (CYP3A4 [2]; [6]) | CYP3A4 Indmax (CYP3A4 [2]; [7]) | CYP3A4 RIS (CYP3A4 [2]; upcyte Donor 422A-03) | CYP3A4 % Rif (CYP3A4 [2]; upcyte Donor 422A-03) | also measured |
| --- | --- | --- | --- | --- | --- | --- | --- | --- | --- | --- | --- | --- | --- | --- | --- | --- | --- | --- | --- | --- | --- |
| NC(=O)N1c2ccccc2C=Cc2ccccc21 [Carbamazepine, carbamazepine] | 2.0 fold | 33% | 2.3 fold | 68% | 4.3 fold | 52% | 1.4 fold | 17% | 95% | 4.8 fold | 2.675 | 13% | 5.5 fold and 4.1 fold | 3.8 fold | 3.071 | 45% | 4.2 fold and 3.4 fold | 4.0 fold | 1.940 | 28% | CYP3A4 Indmax (CYP3A4 [2]; [8]): 4.0 fold and 4.1 fold; CYP3A4 Ind50 (CYP3A4 [2]; upcyte Donor 653-03): 52; CYP3A4 Indmax (CYP3A4 [2]; [9]): 5.7 fold; CYP3A4 RIS (CYP3A4 [2]; upcyte Donor 653-03): 4.138; CYP3A4 Indmax (CYP3A4 [2]; [10]): 6.2 fold and 5.2 fold |
| C[C@@H]1C[C@H]2[C@@H]3CCC4=CC(=O)C=C[C@]4(C)[C@@]3(F)[C@@H](O)C[C@]2(C)[C@@]1(O)C(=O)CO [Dexamethasone, dexamethasone] | No induction | No induction | No induction | No induction | No induction | No induction | No induction | No induction | – | – | – | – | – | – | – | – | – | – | – | – | – |
| CCOC(=O)c1ncn2c1CN(C)C(=O)c1cc(F)ccc1-2 [Flumazenil, flumazenil] | No induction | No induction | No induction | No induction | No induction | No induction | No induction | No induction | 0% | No induction | No induction | No induction | No induction | No induction | No induction | No induction | No induction | No induction | No induction | No induction | CYP2B6 induction (CYP2B6; [11]): did not induce; CYP3A4 induction (CYP3A4 [2]; [11]): did not induce; CYP3A4 Indmax (CYP3A4 [2]; [8]): No induction; CYP3A4 Ind50 (CYP3A4 [2]; upcyte Donor 653-03): No induction; CYP3A4 Indmax (CYP3A4 [2]; [9]): No induction; CYP3A4 RIS (CYP3A4 [2]; upcyte Donor 653-03): No induction; CYP3A4 Indmax (CYP3A4 [2]; [10]): No induction |
| CCC1(c2ccccc2)C(=O)NC(=O)NC1=O [Phenobarbital, phenobarbital] | 3.9 fold | 100% | 2.9 fold | 100% | 7.3 fold | 100% | 3.1 fold | 100% | 70% | 23.3 fold | 0.685 | 74% | 23.8 fold and 22.9 fold | 5.2 fold | 2.211 | 68% | 5.5 fold and 5.0 fold | 11.3 fold | 1.727 | 95% | CYP3A4 Indmax (CYP3A4 [2]; [8]): 10.7 fold and 11.8 fold; CYP3A4 Ind50 (CYP3A4 [2]; upcyte Donor 653-03): 120; CYP3A4 Indmax (CYP3A4 [2]; [9]): 11.8 fold; CYP3A4 RIS (CYP3A4 [2]; upcyte Donor 653-03): 2.198; CYP3A4 Indmax (CYP3A4 [2]; [10]): 13.0 fold and 10.5 fold |
| CO[C@H]1/C=C/O[C@@]2(C)Oc3c(C)c(O)c4c(O)c(c(/C=N/N5CCN(C)CC5)c(O)c4c3C2=O)NC(=O)/C(C)=C\C=C\[C@H](C)[C@H](O)[C@@H](C)[C@@H](O)[C@@H](C)[C@H](OC(C)=O)[C@@H]1C [Rifampicin, rifampicin] | 2.0 fold | 34% | 1.3 fold | 14% | 7.8 fold | 108% | 1.6 fold | 29% | – | – | – | – | – | – | – | – | – | – | – | – | – |
